Laboratory results from patent publication US8227511B2, “Substituted chromanol derivatives and their use” (Bayer Intellectual Property GmbH, priority 2006, dated 2012).

Assays:
CETP [1] = molecular target: T1, CETP (Homo sapiens, UniProt P11597); assay: CETP fluorescence test with enriched CETP; assay type: biochemical; conditions: enriched CETP fraction from human plasma; transfer of fluorescent cholesterol ester between liposomes; 37° C. for 4 h
T1 construct: CETP is obtained in partially purified form from human plasma by differential centrifugation and column chromatography and used for the test; from tissue; host or cells: human plasma
T1 sequence (P11597 18-493): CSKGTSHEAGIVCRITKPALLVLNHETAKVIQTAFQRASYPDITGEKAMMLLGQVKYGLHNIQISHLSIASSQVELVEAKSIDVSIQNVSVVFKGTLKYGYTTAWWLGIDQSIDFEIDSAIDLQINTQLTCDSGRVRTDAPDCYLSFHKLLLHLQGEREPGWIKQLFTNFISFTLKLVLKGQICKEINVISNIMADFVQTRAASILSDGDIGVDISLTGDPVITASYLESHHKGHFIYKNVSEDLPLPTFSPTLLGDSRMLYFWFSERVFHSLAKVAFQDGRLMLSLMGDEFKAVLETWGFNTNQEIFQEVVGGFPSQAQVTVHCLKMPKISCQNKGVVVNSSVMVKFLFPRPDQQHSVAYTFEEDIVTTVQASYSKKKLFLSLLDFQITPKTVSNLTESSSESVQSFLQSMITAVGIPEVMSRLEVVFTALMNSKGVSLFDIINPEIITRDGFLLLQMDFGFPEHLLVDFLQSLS
Protocol: (§1) CETP is obtained in partially purified form from human plasma by differential centrifugation and column chromatography and used for the test. To this end, human plasma is adjusted to a density of 1.21 g per ml using NaBr and centrifuged at 4° C. at 50 000 rpm for 18 h. The bottom fraction (d>1.21 g/ml) is applied to a Phenyl-Sepharose 26/10 HP fast flow-column (Pharmacia), washed with PBS buffer and then eluted with distilled water. 10 parts of PBS buffer and 1% (w/v) BSA are added to the eluate. The CETP-active fractions are pooled.
Measurement of the CETP-catalyzed transfer of a fluorescent cholesterol ester between liposomes [modified according to the procedure of Bisgaier et al., J. Lipid Res. 34, 1625 (1993)]:
For the production of the donor liposomes, 1 mg of cholesteryl 4,4-difluoro-5,7-dimethyl-4-bora-3a,4a-diaza-s-indacene-3-dodecanoate (cholesteryl BODIPY® FL C12, Molecular Probes) is dissolved in 2 ml of chloroform with 5.35 mg of triolein and 6.67 mg of phosphatidylcholine. The solvent is removed at medium temperature in a SpeedVac and the residue is dried under high vacuum for 1 h. The residue is then dissolved in 600 μl of dioxane with gentle warming in an ultrasonic bath and this solution is added very slowly with ultrasonication to 63 ml of 50 mM Tris/HCl, 150 mM NaCl, 2 mM EDTA buffer pH 7.3 at room temperature. The suspension is then ultrasonicated under an N2 atmosphere for 30 minutes in the Branson ultrasonic bath at about 50 watts, the temperature being kept at about 20° C.
The acceptor liposomes are obtained analogously from 86 mg of cholesteryl oleate, 20 mg of triolein and 100 mg of phosphatidylcholine dissolved in 1.2 ml of dioxane and 114 ml of the above buffer by ultrasonication at 50 watts (20° C.) for 30 minutes.
For testing, a test mix consisting of 1 part of above buffer, 1 part of donor liposomes and 2 parts of acceptor liposomes is used.
50 μl of test mix are treated with 48 μl of enriched CETP fraction (1-3 μg), obtained from human plasma by means of hydrophobic chromatography, and 2 μl of a solution of the substance to be investigated in DMSO and incubated at 37° C. for 4 h.
The change in the fluorescence at 485/535 nm is a measure of the CE transfer; the inhibition of the transfer in comparison to the control batch without substance is determined.

CETP [2] = molecular target: T1, CETP; assay: CETP-SPA test; assay type: biochemical; conditions: transfer of 3H-cholesterol ester from human HDL to biotinylated LDL; 37° C. for 18 h
Protocol: as §1
For testing of the CETP activity, the transfer of ^3H-cholesterol ester from human HD lipoproteins to biotinylated LD lipoproteins is measured. The reaction is ended by addition of streptavidin-SPA® beads (Amersham) and the transferred radioactivity is determined directly in a liquid scintillation counter.
In the test batch, 10 μl of HDL-3H-cholesterol ester (about 50 000 cpm) are incubated at 37° C. for 18 h with 10 μl of biotin-LDL (Amersham) in 50 mM Hepes/0.15 M NaCl/0.1% bovine serum albumin (RSA)/0.05% NaN3 pH 7.4 containing 10 μl of CETP (1 mg/ml) and 3 μl of a solution of the substance to be tested (dissolved in 10% DMSO/1% RSA). 200 μl of the SPA-streptavidin bead solution (TRKQ 7005) are then added, incubated further with shaking for 1 h and then measured in a scintillation counter. Corresponding incubations with 10 μl of buffer, 10 μl of CETP at 4° C. and 10 μl of CETP at 37° C. serve as controls.
The activity transferred in the control batches with CETP at 37° C. is rated as 100% transfer. The substance concentration at which this transfer is reduced to half is specified as the IC50 value.

transgenic hCETP mice = assay: Measurement of the in vivo activity in transgenic hCETP mice; conditions: perorally once a day on 3 days, percentage change compared with the starting value
Protocol: To determine the oral action on lipoproteins and triglycerides, test substance is administered perorally to transgenic mice [Dinchuk et al., BBA, 1295-1301 (1995)] using a stomach tube once a day on 3 days. For this purpose, the substances are dissolved in 10% Solutol HS 15/10% ethanol/80% of a 0.9% strength sodium chloride solution; the administration volume is generally 10 ml per kg of body weight. Before the start of the experiment, blood is withdrawn from the mice retro-orbitally in order to determine cholesterol and triglycerides in the serum. The serum is obtained as described above for hamsters by incubation at room temperature for 30 min and subsequent centrifugation at 6000 g. On the day after the last administration of substance, blood is again withdrawn from the mice in order to determine lipoproteins and triglycerides. The changes in the parameters measured are expressed as the percentage change compared with the starting value.

CC(C)c1cc2c(c(-c3ccc(F)cc3)c1Cc1ccc(C(F)(F)F)cc1)[C@@H](O)CC1(CCC1)O2 [Example 32, (4S)-5-(4-Fluorophenyl)-7-isopropyl-6-[4-(trifluoromethyl)benzyl]-3,4-dihydrospiro[chromen-2,1′-cyclobutan]-4-ol]
IC50 (CETP [1]): 19 nM | IC50 (CETP [2]): 4 nM | % increase of HDL after 3 d (dose: 3 × 3 mg/kg) (transgenic hCETP mice): 31%
